Assays:
Assay type in all cases: cell-based, human
SKOV3 cells = assay: 10-14 day Clonagenicity Assay (MTT), SKOV3; conditions: for percentage survival relative to the missense, n = 1: independent experiment n = 1, dilution point of maximum toxicity; for percentage survival relative to the missense, n = 3: independent experiment n = 3, dilution point of maximum toxicity; for percentage survival relative to the missense, n = 2: independent experiment n = 2, dilution point of maximum toxicity
Outline: (§1)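 Extended-growth viability screen: siRNA transfected at 2 μg/ml into six serially diluted seed densities, quantified by MTT at 10-14 days. Hits needed significant loss versus missense (non-overlapping standard error bars) across two densities; maximum-toxicity point reported as mean % viability.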

HCT15 cells = assay: 10-14 day Clonagenicity Assay (MTT), HCT15; conditions: for percentage survival relative to the missense, n = 1: independent experiment n = 1, dilution point of maximum toxicity; for percentage survival relative to the missense, n = 2: independent experiment n = 2, dilution point of maximum toxicity
Outline: as §1

A498 cells = assay: 10-14 day Clonagenicity Assay (MTT), A498; conditions: for percentage survival relative to the missense, n = 1: independent experiment n = 1, dilution point of maximum toxicity; for percentage survival relative to the missense, n = 3: independent experiment n = 3, dilution point of maximum toxicity
Outline: as §1

PC3 cells = assay: Cell Migration Assay (Chemicon ECM550, Boyden Chamber); conditions: 48 hours post siRNA transfection, 24-hour migration, compared to missense and UPA controls
Outline: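 PC3 cells transfected with siRNA (2 μg/ml, 4 h), then assayed 48 h post-transfection in a Boyden chamber migrating toward chemoattractant over 24 h; migration tracked by fluorescent dye, higher fluorescence indicating more migration; compared with missense control and UPA knockdown.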

DU145 cells = assay: 10-14 day Clonagenicity Assay (MTT), DU145; conditions: for percentage survival relative to the missense, n = 3: independent experiment n = 3, dilution point of maximum toxicity; for percentage survival relative to the missense, n = 2: independent experiment n = 2, dilution point of maximum toxicity
Outline: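 Seeded at cell-line-optimised densities, 1:2 serial dilution over six columns; siRNA oligos transfected at 2 μg/ml for 4 h, media changed overnight and at 24 h, then grown 10-14 days at 37° C before MTT read-out. Value is mean % viability vs missense control at the maximum-toxicity dilution, 3 experiments.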

U251 cells = assay: 10-14 day Clonagenicity Assay (MTT), U251; conditions: U251, clonagenicity assay, dilution point of maximum toxicity; for percentage survival relative to the missense, n = 1: independent experiment n = 1; for percentage survival relative to the missense, n = 2: independent experiment n = 2; for percentage survival relative to the missense, n = 3: independent experiment n = 3
Outline: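 U251 cells were seeded in a 96-well plate, left overnight to adhere at 37° C. in humidified 5% CO2, and serially diluted 1 in 2 from Column 1 to 6. They were transfected for 4 hrs with siRNA oligomers at 2 μg/ml, given fresh medium, changed again at 24 hrs, then incubated 10-14 days with weekly renewal. MTT conversion measured cell number; survival was expressed versus missense control.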

Substance | percentage survival relative to the missense, n = 1 (SKOV3 cells) | percentage survival relative to the missense, n = 1 (HCT15 cells) | percentage survival relative to the missense, n = 1 (A498 cells) | percentage survival relative to the missense, n = 3 (A498 cells) | migration of PC3 cells (PC3 cells) | percentage survival relative to the missense, n = 3 (SKOV3 cells) | percentage survival relative to the missense, n = 3 (DU145 cells) | percentage survival relative to the missense, n = 1 (U251 cells) | percentage survival relative to the missense, n = 2 (U251 cells) | percentage survival relative to the missense, n = 3 (U251 cells) | percentage survival relative to the missense, n = 2 (SKOV3 cells) | percentage survival relative to the missense, n = 2 (DU145 cells) | percentage survival relative to the missense, n = 2 (HCT15 cells)
siRNA MPSK1: sense GGGUUAUGCCCACAGAGACtt, antisense GUCUCUGUGGGCAUAACCCtt (sense GGGUUAUGCCCACAGAGACTT; antisense GUCUCUGUGGGCAUAACCCTT; chemistry not given here) | 57.2% | 68.3% | 44.7% | 20.9% | inhibition of migration |  |  |  |  |  |  |  | 
siRNA MKNK: sense UACAUGGCCCCUGAGGUAGtt, antisense CUACCUCAGGGGCCAUGUAtt (sense UACAUGGCCCCUGAGGUAGTT; antisense CUACCUCAGGGGCCAUGUATT; chemistry not given here) | 14% | 36% | 15.4% | 2.7% | inhibition of migration | 34.3% | 33.9% | 33.6% | 59.5% | 69% |  |  | 
siRNA FLT4: sense GUACGGCAACCUCUCCAACtt, antisense GUUGGAGAGGUUGCCGUACtt (sense GUACGGCAACCUCUCCAACTT; antisense GUUGGAGAGGUUGCCGUACTT; chemistry not given here) |  | 64.5% |  | 10% | inhibition of migration | 56.5% | 32.6% |  | 63% | 30.9% | 61% | 52.7% | 48.1%
siRNA PSKH1: sense GAACCUGCACCGCUCCAUAtt, antisense UAUGGAGCGGUGCAGGUUCtt (sense GAACCUGCACCGCUCCAUATT; antisense UAUGGAGCGGUGCAGGUUCTT; chemistry not given here) | 48% | 28.2% | 54.8% | 10% | increases the ability of cancer cells to migrate |  |  | 60.5% |  | 56.9% |  |  | 
siRNA MAK: sense GAAGCCAAGCAUGGGUGUUtt, antisense AACACCCAUGCUUGGCUUCtt (sense GAAGCCAAGCAUGGGUGUUTT; antisense AACACCCAUGCUUGGCUUCTT; chemistry not given here) | 25.6% | 75.9% | 19.4% | 51.6% | increases the ability of cancer cells to migrate |  | 55.4% | 11.5% | 49.1% | 58.7% | 40.3% | 57.2% | 67.3%
siRNA MAPKK5: sense GAGGACAGGUUAAGCUGUGtt, antisense CACAGCUUAACCUGUCCUCtt (sense GAGGACAGGUUAAGCUGUGTT; antisense CACAGCUUAACCUGUCCUCTT; chemistry not given here) | 18.5% | 65.3% | 10.2% | 6.9% | no influence on the migration | 53.7% | 13.6% | 44.8% | 51.4% | 12.4% |  |  | 61.2%

Source: patent US20050019746A1, “Apoptosis-related kinase/GPCRs” (EiRx Therapeutics Limited, priority 2003, published 2005)
